Where “and” joins values, the source holds several entries; their conditions need not be identical. Identical values can stand only once. Entries after “also recorded” stand apart in the source; their conditions may differ.
Experiments:
Format in all cases: in vivo, human
ALMS patients [1] = assay: Albumin-to-creatinine ratio (ACR); conditions: for Change from Baseline ACR, Mean (SD) / Change from Baseline ACR, Median / ACR: 800 mg daily oral; for ACR: individual subjects, listed as sodium 2-(3-pentylphenypacetate)
Experimental: (§1) The study was a Phase 2, single-centre, single-arm, open-label study of sodium 2-(3-pentylphenyl)acetate administered at a total daily oral dose of 800 mg for up to 72 weeks in subjects with ALMS was undertaken. The initial duration of the study was 24 weeks, and subjects were offered to enrol into an extension phase of 36 or 48 weeks. The schedule of study procedures for the enrolment, intervention, and assessments for participants is outlined in FIG. 1. Sodium 2-(3-pentylphenyl)acetate was formulated in soft gelatine capsules containing 200 mg of Sodium 2-(3-pentylphenyl)acetate (amorphous powder) per capsule, polyethylene glycol 400, National Formulary (NF), hydrochloric acid (for pH adjustment), and water. Albuminuria, the increase in excretion of urinary albumin, is marker of kidney damage and is assessed by measuring the ACR. The effect of sodium 2-(3-pentylphenyl)acetate on kidney histology/damage in ALMS patients was assessed by measuring the ACR.

ALMS patients [2] = assay: Liver stiffness by transient elastography (FibroScan) and Metavir score, Phase 2 open-label study; conditions: for Change from Baseline Transient Elastography, Mean (SD) / Change from Baseline Transient Elastography, Median / Transient Elastography Score / Metavir Score (F): 800 mg daily oral
Experimental: The study was a Phase 2, single-centre, single-arm, open-label study of sodium 2-(3-pentylphenyl)acetate administered at a total daily oral dose of 800 mg for up to 72 weeks in subjects with ALMS was undertaken. The initial duration of the study was 24 weeks, and subjects were offered to enrol into an extension phase of 36 or 48 weeks. The schedule of study procedures for the enrolment, intervention, and assessments for participants is outlined in FIG. 1. Sodium 2-(3-pentylphenyl)acetate was formulated in soft gelatine capsules containing 200 mg of Sodium 2-(3-pentylphenyl)acetate (amorphous powder) per capsule, polyethylene glycol 400, National Formulary (NF), hydrochloric acid (for pH adjustment), and water. A total of 15 subjects participated in the study. […] Twelve (12) subjects met the eligibility criteria and received at least 1 dose of 800 mg sodium 2-(3-pentylphenyl)acetate, with all 12 subjects completing the initial 24-week treatment period as planned. A 36-week EP was added to the study protocol (Table 1). Ten (10) of the 12 subjects who completed the initial 24-week study drug treatment period continued in the EP, with 6 subjects having a break in treatment until the amendment was implemented before continuing treatment in the EP and 4 subjects continuing in the EP without any break in treatment. Two subjects (826-001-002 and 826-001-014) completed the study after the initial 24-week study drug treatment period. The effect of sodium 2-(3-pentylphenyl)acetate on liver histology in ALMS patients was first assessed by measuring liver stiffness. Liver stiffness is a physical parameter that reflects the health of the liver and is commonly used to diagnose liver diseases. Increased liver stiffness may be associated with hepatic dysfunction.

ALMS patients [3] = assay: Fasting insulin; conditions: for Change from Baseline Fasting Insulin, Mean / Change from Baseline Fasting Insulin, Median: 800 mg daily oral; for decrease of fasting insulin from baseline: Subject 826-001-003
Experimental: as §1, with “water.” for “water. Albuminuria, the increase in excretion of urinary albumin, is marker of kidney damage and is assessed by measuring the ACR. The effect of sodium 2-(3-pentylphenyl)acetate on kidney histology/damage in ALMS patients was assessed by measuring the ACR.”

[4] = Subject 826-001-007, 32-day break in treatment
[5] = Subject 826-001-013, 30-day break in treatment
[6] = individual subjects, EP Week 12 (Week 36)
[7] = individual subjects, EP Week 24 (Week 48)
[8] = individual subjects, EP Week 36 (Week 60)

CCCCCc1cccc(CC(=O)[O-])c1.[Na+] [sodium 2-(3-pentylphenyl)acetate]
Change from Baseline ACR, Mean (SD) (ALMS patients [1]; EP Week 12 (Week 36), N=10): 6.19 (16.707) mg/mmol
Change from Baseline ACR, Median (ALMS patients [1]; EP Week 12 (Week 36), N=10): 1.25 mg/mmol
Change from Baseline ACR, Mean (SD) (ALMS patients [1]; EP Week 24 (Week 48), N=10): 13.30 (28.301) mg/mmol
Change from Baseline ACR, Median (ALMS patients [1]; EP Week 24 (Week 48), N=10): 1.30 mg/mmol
Change from Baseline ACR, Mean (SD) (ALMS patients [1]; EP Week 36 (Week 60), N=9): 21.32 (44.461) mg/mmol
Change from Baseline ACR, Median (ALMS patients [1]; EP Week 36 (Week 60), N=9): 1.60 mg/mmol
increase in ACR from baseline (ALMS patients [1]; Subject 826-001-003, 32-day break in treatment): 13.8 mg/mmol
increase in ACR from baseline (ALMS patients [1]; [4]): 133.8 mg/mmol
increase in ACR from baseline (ALMS patients [1]; [5]): 43.9 mg/mmol
Change from Baseline ACR, Mean (SD) (ALMS patients [1]; Week 12, N=12): 10.08 (20.848) mg/mmol
Change from Baseline ACR, Median (ALMS patients [1]; Week 12, N=12): 0.90 mg/mmol
Change from Baseline ACR, Mean (SD) (ALMS patients [1]; Week 24, N=11): 4.96 (14.993) mg/mmol
Change from Baseline ACR, Median (ALMS patients [1]; Week 24, N=11): 0.30 mg/mmol
ACR (ALMS patients [1]; EP Week 12 (Week 36)): 7.5 mg/mmol and 18.0 mg/mmol and 7.9 mg/mmol and 2.0 mg/mmol and 2.2 mg/mmol and 95.0 mg/mmol and <2.3 mg/mmol and 8.6 mg/mmol and 56.3 mg/mmol and 0.6 mg/mmol
ACR (ALMS patients [1]; EP Week 24 (Week 48)): 6.2 mg/mmol and 21.6 mg/mmol and 6.7 mg/mmol and 2.1 mg/mmol and 0.8 mg/mmol and 111.7 mg/mmol and 0.7 mg/mmol and 12.9 mg/mmol and 106.5 mg/mmol and <2.3 mg/mmol
ACR (ALMS patients [1]; EP Week 36 (Week 60)): 6.1 mg/mmol and 21.9 mg/mmol and 19.2 mg/mmol and <2.3 mg/mmol (2×) and 178.3 mg/mmol and 1.9 mg/mmol and 8.6 mg/mmol and 85.4 mg/mmol
ACR (ALMS patients [1]; Week 12): 4.3 mg/mmol and 22.5 mg/mmol and 24.3 mg/mmol and 14.5 mg/mmol and 0.4 mg/mmol and <2.3 mg/mmol (3×) and 89.2 mg/mmol and 15.1 mg/mmol and 102.9 mg/mmol and 15.6 mg/mmol
ACR (ALMS patients [1]; Week 24): 4.2 mg/mmol and 15.5 mg/mmol and 14.5 mg/mmol and 10.7 mg/mmol and 2.2 mg/mmol and 77.0 mg/mmol and <2.3 mg/mmol and 13.2 mg/mmol and 77.4 mg/mmol and 10.2 mg/mmol and 1.4 mg/mmol
subjects in whom liver stiffness decreased from baseline (ALMS patients [2]; 8/11 subjects, after treatment with 800 mg): 72.3%
Change from Baseline Transient Elastography, Mean (SD) (ALMS patients [2]; EP Week 12 (Week 36), N=10): −1.41 (2.585) kPa
Change from Baseline Transient Elastography, Median (ALMS patients [2]; EP Week 12 (Week 36), N=10): −1.75 kPa
Change from Baseline Transient Elastography, Mean (SD) (ALMS patients [2]; EP Week 24 (Week 48), N=10): −1.49 (2.335) kPa
Change from Baseline Transient Elastography, Median (ALMS patients [2]; EP Week 24 (Week 48), N=10): −1.45 kPa
Change from Baseline Transient Elastography, Mean (SD) (ALMS patients [2]; EP Week 36 (Week 60), N=9): −2.59 (2.703) kPa
Change from Baseline Transient Elastography, Median (ALMS patients [2]; EP Week 36 (Week 60), N=9): −2.30 kPa
largest increase in liver stiffness from baseline (ALMS patients [2]; [5]): 1.8 kPa
Metavir score at Week 60 (ALMS patients [2]; Subject 826-001-015, baseline F4): F0/1 (Metavir score F0-F1: absence or mild fibrosis (2.5-7.0 kPa on FibroScan ®))
number of subjects with at least a 1-grade reduction in liver fibrosis (Metavir scoring system) (ALMS patients [2]; Subjects 826-001-001, -004, -012, -015): 4 subjects
Change from Baseline Transient Elastography, Mean (SD) (ALMS patients [2]; Week 12, N=11): −1.19 (2.160) kPa
Change from Baseline Transient Elastography, Median (ALMS patients [2]; Week 12, N=11): −1.50 kPa
Change from Baseline Transient Elastography, Mean (SD) (ALMS patients [2]; Week 24, N=11): −1.01 (2.308) kPa
Change from Baseline Transient Elastography, Median (ALMS patients [2]; Week 24, N=11): −0.70 kPa
decrease in liver stiffness from baseline (mean) (ALMS patients [2]; after 60 weeks of treatment, p=0.0207): 2.59 kPa
Transient Elastography Score (ALMS patients [2]; individual subjects (one line per subject), Week 12): 7.1 kPa and 6.1 kPa and 4.5 kPa and 5.3 kPa and 3.1 kPa and 10.5 kPa and 19.6 kPa and 7.8 kPa and 12.2 kPa and 12.0 kPa and 50.5 kPa and 7.7 kPa
Metavir Score (F) (ALMS patients [2]; [6]): (F0/1) (Metavir score F0-F1: absence or mild fibrosis (2.5-7.0 kPa on FibroScan ®)); also recorded: (F2) (Metavir score F2: significant fibrosis ≥ 7.1 to < 9.5 kPa on FibroScan ®)); also recorded: (F4) (Metavir score F4: cirrhosis( ≥ 12.5 kPa on FibroScan ®)); also recorded: (F3) (Metavir score F3: severe fibrosis ≥ 9.5 to < 12.5 kPa on FibroScan ®)
Transient Elastography Score (ALMS patients [2]; [6]): 6.6 kPa and 4.2 kPa and 6.5 kPa and 4.6 kPa and 8.9 kPa and 18.6 kPa and 5.8 kPa and 10.2 kPa and 14.7 kPa and 7.4 kPa
Metavir Score (F) (ALMS patients [2]; [7]): (F2) (Metavir score F2: significant fibrosis ≥ 7.1 to < 9.5 kPa on FibroScan ®)); also recorded: (F0/1) (Metavir score F0-F1: absence or mild fibrosis (2.5-7.0 kPa on FibroScan ®)); also recorded: (F4) (Metavir score F4: cirrhosis( ≥ 12.5 kPa on FibroScan ®)); also recorded: (F3) (Metavir score F3: severe fibrosis ≥ 9.5 to < 12.5 kPa on FibroScan ®)
Transient Elastography Score (ALMS patients [2]; [7]): 7.1 kPa and 4.1 kPa and 4.7 kPa and 5.1 kPa and 7.5 kPa and 21.6 kPa and 5.0 kPa and 12.1 kPa and 12.6 kPa and 6.9 kPa
Metavir Score (F) (ALMS patients [2]; [8]): (F2) (Metavir score F2: significant fibrosis ≥ 7.1 to < 9.5 kPa on FibroScan ®)); also recorded: (F0/1) (Metavir score F0-F1: absence or mild fibrosis (2.5-7.0 kPa on FibroScan ®)); also recorded: (F4) (Metavir score F4: cirrhosis( ≥ 12.5 kPa on FibroScan ®)); also recorded: (F3) (Metavir score F3: severe fibrosis ≥ 9.5 to < 12.5 kPa on FibroScan ®)
Transient Elastography Score (ALMS patients [2]; [8]): 7.8 kPa and 3.8 kPa and 5.0 kPa and 3.9 kPa and 17.1 kPa and 6.0 kPa and 8.6 kPa and 12.2 kPa and 5.1 kPa
Metavir Score (F) (ALMS patients [2]; individual subjects, Week 12): (F2) (Metavir score F2: significant fibrosis ≥ 7.1 to < 9.5 kPa on FibroScan ®)); also recorded: (F0/1) (Metavir score F0-F1: absence or mild fibrosis (2.5-7.0 kPa on FibroScan ®)); also recorded: (F3) (Metavir score F3: severe fibrosis ≥ 9.5 to < 12.5 kPa on FibroScan ®); also recorded: (F4) (Metavir score F4: cirrhosis( ≥ 12.5 kPa on FibroScan ®))
Metavir Score (F) (ALMS patients [2]; individual subjects, Week 24): (F2) (Metavir score F2: significant fibrosis ≥ 7.1 to < 9.5 kPa on FibroScan ®)); also recorded: (F0/1) (Metavir score F0-F1: absence or mild fibrosis (2.5-7.0 kPa on FibroScan ®)); also recorded: (F4) (Metavir score F4: cirrhosis( ≥ 12.5 kPa on FibroScan ®))
Transient Elastography Score (ALMS patients [2]; individual subjects, Week 24): 7.2 kPa and 7.6 kPa and 5.9 kPa and 5.2 kPa and 4.6 kPa and 8.1 kPa and 21.8 kPa and 5.6 kPa and 8.6 kPa and 14.3 kPa and 48.9 kPa and 9.0 kPa
Change from Baseline Fasting Insulin, Mean (ALMS patients [3]; EP Week 12 (Week 36), N=10): -920.20 pmol/L
Change from Baseline Fasting Insulin, Median (ALMS patients [3]; EP Week 12 (Week 36), N=10): -53.50 pmol/L
Change from Baseline Fasting Insulin, Mean (ALMS patients [3]; EP Week 24 (Week 48), N=9): -1371.78 pmol/L
Change from Baseline Fasting Insulin, Median (ALMS patients [3]; EP Week 24 (Week 48), N=9): -24.00 pmol/L
Change from Baseline Fasting Insulin, Mean (ALMS patients [3]; EP Week 36 (Week 60), N=8): -1191.63 pmol/L
Change from Baseline Fasting Insulin, Median (ALMS patients [3]; EP Week 36 (Week 60), N=8): 7.00 pmol/L
Change from Baseline Fasting Insulin, Mean (ALMS patients [3]; EP Week 48 (Week 72), N=3): -3933.00 pmol/L
Change from Baseline Fasting Insulin, Median (ALMS patients [3]; EP Week 48 (Week 72), N=3): 193.00 pmol/L
increase in fasting insulin from baseline (ALMS patients [3]; Subject 826-001-001, 204-day break in treatment): 420 pmol/L
decrease of fasting insulin from baseline (ALMS patients [3]; after 24 weeks): ~30%
decrease of fasting insulin from baseline (ALMS patients [3]; after 72 weeks): > 96%
increase in fasting insulin from baseline (ALMS patients [3]; Subject 826-001-004, 30-day break in treatment): 298 pmol/L
increase in fasting insulin from baseline (ALMS patients [3]; [4]): 1970 pmol/L
increase in fasting insulin from baseline (ALMS patients [3]; [5]): 1160 pmol/L
Change from Baseline Fasting Insulin, Mean (ALMS patients [3]; Week 12, N=12): -18.92 pmol/L
Change from Baseline Fasting Insulin, Median (ALMS patients [3]; Week 12, N=12): 9.00 pmol/L
Change from Baseline Fasting Insulin, Mean (ALMS patients [3]; Week 24, N=12): -339.08 pmol/L
Change from Baseline Fasting Insulin, Median (ALMS patients [3]; Week 24, N=12): -86.00 pmol/L
Fasting Insulin (ALMS patients [3]; by-subject listing, ALMS subjects, EP Week 48 (Week 72)): 460 pmol/L and 600 pmol/L and 303 pmol/L

Reference: patent publication US20220016060A1, “USE OF SODIUM 2-(3-PENTYLPHENYL)ACETATE IN THE TREATMENT OF ALSTRÖM SYNDROME” (LIMINAL BIOSCIENCES LIMITED, priority 2018, published 2022)
